Structures can show the parent of a compound that is named as a salt. Where two headings read alike, the source gives them in different places.

13 molecules from patent US20040266766A1, “Selective urokinase inhibitors” (Wilex AG, priority 2001, published 2004) can be followed below.

The target of one series is T1, urokinase (uPA) (Homo sapiens, UniProt P00749).
T1 construct: purchased Calbiochem-Novabiochem GmbH, Bad Soden, Germany
Description: In vitro inhibition of urokinase (Ki according to Dixon, chromogenic substrate). Type of series: biochemical. The protocol: (§1) In order to determine the inhibitory activity, 200 μl Tris buffer (0.05 mol/l containing the inhibitor, 0.154 mol/l NaCl, pH 8.0), 25 μl substrate (Pefachrome uPA, Pefachrome PL or Pefabloc TH in H2O; Pentapharm Ltd, Basle, Switzerland) and 50 μl urokinase (Calbiochem-Novabiochem GmbH, Bad Soden, Germany) or another appropriate protease e.g. plasmin, thrombin or FXa are incubated for 10 minutes at 30° C. After ca. 30 minutes and 30 cycles the absorption is determined at 405 nm by means of a microplate reader (Mediators PHL, Aureon Biosystems, Vienna, Austria). The Ki values were determined according to Dixon by linear regression using a computer program.

For the next series, the target named is Thrombin (Homo sapiens, UniProt P00734). Description: In vitro inhibition of thrombin (Ki according to Dixon). Type of series: biochemical. The protocol: as §1
A further series concerns the target FXa (Homo sapiens, UniProt P00742). Description: In vitro inhibition of FXa (Ki according to Dixon). The series is classed as biochemical. The protocol: as §1
The nature of series [1]: Oral bioavailability and plasma kinetics in mice (serum concentration). Type of series: in vivo, Balb/c mice. Conditions: mouse; for concentration at 20 min / concentration at 40 min / concentration at 60 min: female, Balb/c, serum, po, read-out: c in the serum 1st analysis; for concentration at 20 min: sample at 20 minutes; for concentration at 40 min: sample at 40 minutes; for concentration at 60 min: sample at 60 minutes; for c in the serum 1st analysis: 10 mg/kg i.v.

The next series deals with Caco-2 cell monolayers. Description: Caco-assay: transport across Caco-2 cell monolayers. The series is classed as in vitro ADME, human. Particulars: for % amount in the basolateral compartment: 10 μg/ml apical, four hours. The procedure:
Transport of the compounds WX-508, WXC-316, WXC-318, WXC-324, WXC-340, WX-532, WX-538, WX-550 and WX-582 across Caco-2 cell monolayers was investigated. In this experiment the bioavailability of the said compounds after oral administration was assessed.
Caco-2-cells (American Type Culture Collection, Rockville, Md., USA) were cultured in Dulbecco's modified Eagle medium (DMEM) (Life Technologies, Gibco BRL, UK) containing 10% vol/vol heat-denatured foetal calf serum (FCS), 1% vol/vol non-essential amino acids, 160 U/ml benzylpenicillin and 100 U/ml streptomycin (Sigma Chemical, St. Louis, Mo., USA). The cells are kept at 37° C. in an atmosphere comprising 95% air and 5% CO2 at 90% relative air humidity. The cells are cultured in […] culture flasks, the medium being replaced every second day and the cells are trypsinized once per week.
For the transport investigations the Caco-2 cells are cultured on porous polycarbonate filter membranes having a pore size of 0.4 μm and a surface of 4.7 cm^2 in clusters of 6 wells (Costar Transwell, Badhoevedorp, Netherlands). The cells are inoculated on each filter at an initial density of 10^4 cells/cm^2. These cells are kept at 37° C. in one of the atmospheres described above. The medium is replaced every second day for a period of three weeks.
On the day of the transport experiment the culture medium was replaced by the same volume of Hank's balanced saline solution (HBSS) buffered with 30 mM HEPES at pH 7.2 (transport medium) and the cells are allowed to equilibrate for 1 hour. Afterwards the apical medium is replaced by 1.5 ml of a solution containing one of the compounds in HBSS/HEPES (10 μg/ml). Cell monolayers are incubated for four hours. Samples of the apical and basolateral compartments are removed at the end of the experiments and used to quantitatively determine the transport of the respective compounds.
The transepithelial electric resistance (TEER) is measured before and after equilibration using a Milicell ERS meter which was connected to a pair of electrodes in order to ensure the integrity of the monolayers formed on the filters. TEER is also measured at the end of the experiments to ensure that the cell monolayer remains coherent.
Samples are taken from the apical and the basolateral side and analysed in a beta counter after adding a scintillation cocktail. All experiments were carried out three times.
A general note: Passage across Caco-2 layers is used to estimate intestinal permeability.

Setting [2] is: summary table, read-out: Ki uPA.

Sequence of FXa (P00742 235-488 limits assumed): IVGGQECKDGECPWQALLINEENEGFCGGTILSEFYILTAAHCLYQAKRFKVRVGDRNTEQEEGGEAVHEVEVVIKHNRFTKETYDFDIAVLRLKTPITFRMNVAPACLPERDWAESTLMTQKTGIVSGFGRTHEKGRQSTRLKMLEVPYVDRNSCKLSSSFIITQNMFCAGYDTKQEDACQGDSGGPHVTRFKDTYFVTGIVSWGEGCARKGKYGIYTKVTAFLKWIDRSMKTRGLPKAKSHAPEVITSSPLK
Sequence of FXa (P00742 41-179 partner limits assumed): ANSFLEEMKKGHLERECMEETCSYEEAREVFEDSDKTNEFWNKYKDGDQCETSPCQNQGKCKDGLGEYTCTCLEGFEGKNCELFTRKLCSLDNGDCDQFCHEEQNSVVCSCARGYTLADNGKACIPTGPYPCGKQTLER

Regarding `N=C(N)Nc1ccc(CNC(=O)NNC(=O)[C@@H](CO)NS(=O)(=O)Cc2ccccc2)cc1` [WX-544, BzSO2-(D)-Ser-AzaGly-(4-guanidinobenzyl)amide], the Ki (in general, the equilibrium dissociation constant of an inhibitor or competing ligand from its target) on urokinase (uPA) (read-out: Ki uPA) came to 0.83 µM. Further, the “Ki Thrombin” value at Thrombin is reported as “no inh. at 100 μM *)”.
As for `N=C(N)Nc1ccc(S(=O)(=O)NCCNC(=O)C(CO)NS(=O)(=O)Cc2ccccc2)cc1` (stereo not shown) [WX-568, N-[2-(4-guanidino-benzenesulfonylamino)-ethyl]-3-hydroxy-2-phenylmethanesulfonylamino-propionamide hydrochloride], the Ki was 2.1 µM on urokinase (uPA) (read-out: Ki uPA), more than 1000 µM on FXa and more than 1000 µM on Thrombin.
With `CC1(C)C2CCC1(CS(=O)(=O)NC(CO)C(=O)NCC(=O)NCc1ccc(NC(=N)N)cc1)C(=O)C2` (stereo not drawn) [WX-C298, (+)-Camphor-10-sulfonyl-(D)-Ser-Gly-(4-guanidinobenzyl)amide hydrochloride], the Ki on urokinase (uPA) (read-out: Ki uPA) and at urokinase (uPA) (setting [2]) was 0.16 µM in each case. The concentration at 20 min in series [1] (30 mg/kg, 30 mg/kg oral) came to 200 ng/mL; in series [1] (300 mg/kg, 300 mg/kg oral) it was 17000 ng/mL. The concentration at 40 min is 400 ng/mL in series [1] (30 mg/kg, 30 mg/kg oral) and 10700 ng/mL in series [1] (300 mg/kg, 300 mg/kg oral). Besides, the concentration at 60 min in series [1] (30 mg/kg, 30 mg/kg oral) is 100 ng/mL; in series [1] (300 mg/kg, 300 mg/kg oral), 7000 ng/mL. In addition, the entries for the “c in the serum 1st analysis” value in series [1] (time of sample collection 0), in series [1] (time of sample collection 10) and in series [1] (time of sample collection 30) were 66.2 µg/mL, 18.3 µg/mL and 2.1 µg/mL, respectively.
On to `CCCCS(=O)(=O)NC(CO)C(=O)NCC(=O)NCc1ccc(NC(=N)N)cc1` (stereo not drawn) [WX-C300, n-Butyl-sulfonyl-(D)-Ser-Gly-(4-guanidinobenzyl)amide hydrochloride], for which the Ki at urokinase (uPA) (list of test substances of Example 17, read-out: Ki human uPA) was 0.27 µM; on urokinase (uPA) (read-out: Ki uPA) it was 0.27 µM; at urokinase (uPA) (setting [2]) it was 0.27 µM. Further, the concentration at 20 min came to 200 ng/mL in series [1] (30 mg/kg, 30 mg/kg oral) and 1500 ng/mL in series [1] (300 mg/kg, 300 mg/kg oral). In addition, the concentration at 40 min in series [1] (30 mg/kg, 30 mg/kg oral) is 200 ng/mL; in series [1] (300 mg/kg, 300 mg/kg oral) it was 4600 ng/mL. In addition, the concentration at 60 min came to 200 ng/mL in series [1] (30 mg/kg, 30 mg/kg oral) and 600 ng/mL in series [1] (300 mg/kg, 300 mg/kg oral). The results for the “c in the serum 1st analysis” value in series [1] (time of sample collection 0), in series [1] (time of sample collection 10) and in series [1] (time of sample collection 30) were 94.4 µg/mL, 11.0 µg/mL and 1.3 µg/mL, respectively.
Consider `N=C(N)Nc1ccc(CNC(=O)CNC(=O)C(CO)NC(=O)Nc2cccc(C(=O)O)c2)cc1` (stereo not drawn) [WX-C324, 3-Carboxyphenyl-aminocarbonyl-(D)-Ser-Gly-(4-guanidinobenzyl)amide hydrochloride], for which the entries for the “% amount in the basolateral compartment” value with Caco-2 cell monolayers (first value column), in the series with Caco-2 cell monolayers (second value column) and in the series with Caco-2 cell monolayers (third value column) were 0.1%, 0.1% and 2.0%, respectively. Besides, the “Caco-2 assay % basolateral” value with Caco-2 cell monolayers (first series, first value) worked out at 0.1%; in the series on Caco-2 cell monolayers (first series, second value), 0.1%; with Caco-2 cell monolayers (first series, third value) it was 2.9%; with Caco-2 cell monolayers (second series, first value) it was 0%; with Caco-2 cell monolayers (second series, second value), 0%; with Caco-2 cell monolayers (second series, third value) it was 3.0%. For the same molecule, on urokinase (uPA) (read-out: Ki uPA), the Ki stood at 3.1 µM.
As to `CC(=O)c1ccc(NC(=O)NC(CO)C(=O)NCC(=O)NCc2ccc(NC(=N)N)cc2)cc1` (stereo not drawn) [WX-C330, 4-Acetylphenyl-aminocarbonyl-(D)-Ser-Gly-(4-guanidinobenzyl)amide hydrochloride], the inhibitory constant (Ki) on urokinase (uPA) (read-out: Ki uPA) was more than 20 µM.
Regarding `N=C(N)Nc1ccc(CNC(=O)CNC(=O)C(CO)NC(=O)Nc2ccc3c(c2)OCO3)cc1` (stereo not drawn) [WX-C332, 3,4-Methylenedioxyphenyl-aminocarbonyl-(D)-Ser-Gly-(4-guanidinobenzyl)amide hydrochloride], the Ki on urokinase (uPA) (read-out: Ki uPA) was more than 20 µM.
The same measure, in the same setting: then `N=C(N)Nc1ccc(CNC(=O)CNC(=O)C(CO)NC(=O)Nc2cccc(Cl)c2Cl)cc1` (stereo not drawn) [WX-C334, 2,3-Dichlorophenyl-aminocarbonyl-(D)-Ser-Gly-(4-guanidinobenzyl)amide hydrochloride], with more than 20 µM; and `CCOC(=O)c1ccc(NC(=O)NC(CO)C(=O)NCC(=O)NCc2ccc(NC(=N)N)cc2)cc1` (stereo not drawn) [WX-C336, 4-Ethyloxycarbonylphenyl-aminocarbonyl-(D)-Ser-Gly-(4-guanidinobenzyl)amide hydrochloride], with 13.1 µM; and `N=C(N)Nc1ccc(CNC(=O)CNC(=O)C(CO)NC(=O)Nc2ccc(Br)cc2Br)cc1` (stereo not drawn) [WX-C338, 2,4-Dibromophenyl-aminocarbonyl-(D)-Ser-Gly-(4-guanidinobenzyl)amide hydrochloride], with more than 20 µM.
For the molecule `N=C(N)Nc1ccc(CNC(=O)CNC(=O)C(CO)NC(=O)Nc2ccc([N+](=O)[O-])cc2)cc1` (stereo not drawn) [WX-C342, 4-Nitrophenyl-aminocarbonyl-(D)-Ser-Gly-(4-guanidinobenzyl)amide hydrochloride], at urokinase (uPA) (read-out: Ki uPA), the Ki came to 4.9 µM.
In the case of `N=C(N)Nc1ccc(CNC(=O)CNC(=O)C(CNC(=O)OCc2ccccc2)NS(=O)(=O)Cc2ccccc2)cc1` (stereo not shown) [WX-M5, benzylsulfonyl-(D)-Dap(Z)-Gly-(4-guanidinobenzyl)amide hydrochloride], the Ki on urokinase (uPA) (read-out: Ki uPA) stood at 0.5 µM.
Take `N=C(N)Nc1ccc(CNC(=O)CNC(=O)C(CN)NS(=O)(=O)Cc2ccccc2)cc1` (stereo not drawn) [WX-M6, Benzylsulfonyl-(D)-Dap-Gly-(4-guanidinobenzyl)amide bis-hydrochloride]: at urokinase (uPA) (read-out: Ki uPA), the inhibition constant (Ki) turned out to be 0.15 µM.
